pEC50: −log10 of the molar value. The source made the active and inactive calls. The rule behind the calls is not given here.
Columns and labels:
[1] = biological target: RAC-alpha serine/threonine-protein kinase (Homo sapiens) (UniProt P31749); test: Covalent-allosteric inhibition of full length N-terminal his6-tagged AKT (2 to 446 residues) (unknown origin) expressed in Spodoptera frugiperda Sf9 cells assessed as kinact/ki ratio
[2] = biological target: RAC-alpha serine/threonine-protein kinase (Homo sapiens) (UniProt P31749); test: Covalent-allosteric inhibition of full length N-terminal his6-tagged AKT (2 to 446 residues) (unknown origin) expressed in Spodoptera frugiperda Sf9 cells assessed as kinact
[3] = test system: KU-19-19; test: Antiproliferative activity against human KU-19-19 cells assessed as reduction in cell viability incubated for 5 days by celltiter-glo assay; type: functional, cell-based; settings: KU-19-19, 120 h
[4] = biological target: RAC-alpha serine/threonine-protein kinase (Homo sapiens) (UniProt P31749); test: Covalent-allosteric inhibition of full length N-terminal his6-tagged AKT (2 to 446 residues) (unknown origin) expressed in Spodoptera frugiperda Sf9 cells at 100 uM incubated for 1 hr by Mass spectrometry analysis
[5] = test system: BT-474; test: Antiproliferative activity against human BT-474 cells assessed as reduction in cell viability incubated for 5 days by celltiter-glo assay; type: functional, cell-based; settings: BT-474, 120 h
[6] = test system: AN3-CA; test: Antiproliferative activity against human AN3-CA cells assessed as reduction in cell viability incubated for 5 days by celltiter-glo assay; type: functional, cell-based; settings: 120 h
[7] = test system: MCF7; test: Antiproliferative activity against human MCF7 cells assessed as reduction in cell viability incubated for 5 days by celltiter-glo assay; type: functional, cell-based; settings: MCF7, 120 h

RAC-alpha serine/threonine-protein kinase (Homo sapiens), sequence (P31749 whole entry, the tested form may be a part): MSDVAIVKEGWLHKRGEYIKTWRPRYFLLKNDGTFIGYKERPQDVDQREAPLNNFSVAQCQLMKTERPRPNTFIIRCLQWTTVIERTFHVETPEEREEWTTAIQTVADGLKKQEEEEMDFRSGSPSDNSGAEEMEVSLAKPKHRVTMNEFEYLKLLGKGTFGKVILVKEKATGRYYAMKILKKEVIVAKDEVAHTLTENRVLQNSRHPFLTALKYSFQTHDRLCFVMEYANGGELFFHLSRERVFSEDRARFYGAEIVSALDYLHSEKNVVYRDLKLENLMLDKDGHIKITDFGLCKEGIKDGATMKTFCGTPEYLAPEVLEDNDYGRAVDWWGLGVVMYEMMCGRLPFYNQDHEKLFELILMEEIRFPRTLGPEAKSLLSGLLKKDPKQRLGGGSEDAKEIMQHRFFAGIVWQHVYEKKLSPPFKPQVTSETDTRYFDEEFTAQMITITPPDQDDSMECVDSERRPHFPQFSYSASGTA

Structure (SMILES) | Ratio [1] | Kinact [2] | pEC50 [3] | other results
C=CC(=O)Nc1cccc(C(=O)NC2CCN(Cc3ccc(-c4nc5cc[nH]c(=O)c5cc4-c4ccccc4)cc3)CC2)c1 |  |  | 4.83 | 
C=CC(=O)Nc1cc(Br)cc(C(=O)NC2CCN(Cc3ccc(-c4nc5cc[nH]c(=O)c5cc4-c4ccccc4)cc3)CC2)c1 | 0.168 µM⁻¹ s⁻¹ | 0.078 min⁻¹ |  | 
CC(C)NC[C@@H](C(=O)N1CCN(c2ncnc3c2[C@H](C)C[C@H]3O)CC1)c1ccc(Cl)cc1 [IPATASERTIB] |  |  | 4.62 | 
NC1(C(=O)N[C@@H](CCO)c2ccc(Cl)cc2)CCN(c2nc[nH]c3nccc2-3)CC1 [CAPIVASERTIB] |  |  | 4.68 | 
C=CC(=O)Nc1ccc2[nH]c(=O)n(C3CCN(Cc4ccc(-c5nc6cc[nH]c(=O)c6cc5-c5ccccc5)cc4)CC3)c2c1 |  |  |  | inhibition [4]: Active
C=CC(=O)Nc1ccc2c(c1)n(C1CCN(Cc3ccc(-c4nc5cc[nH]c(=O)c5cc4-c4ccccc4)cc3)CC1)c(=O)n2C | 0.19 µM⁻¹ s⁻¹ | 0.121 min⁻¹ |  | inhibition [4]: Active
CN(C)C/C=C/C(=O)Nc1ccc2[nH]c(=O)n(C3CCN(Cc4ccc(-c5nc6cc[nH]c(=O)c6cc5-c5ccccc5)cc4)CC3)c2c1 | 0.025 µM⁻¹ s⁻¹ | 0.05 min⁻¹ |  | pEC50 [5]: 4.92; pEC50 [6]: 4.81; pEC50 [7]: 4.69

More lines, main results first:

Ratio [1] | Kinact [2] | Structure (SMILES) | pEC50 [3] | other results
0.085 µM⁻¹ s⁻¹ | 0.138 min⁻¹ | C=CC(=O)Nc1ccccc1C(=O)NC1CCN(Cc2ccc(-c3nc4cc[nH]c(=O)c4cc3-c3ccccc3)cc2)CC1 |  | 
0.002 µM⁻¹ s⁻¹ | 0.042 min⁻¹ | C=CC(=O)Nc1ccc(C(=O)NC2CCN(Cc3ccc(-c4nc5cc[nH]c(=O)c5cc4-c4ccccc4)cc3)CC2)cc1 | 4.95 | 
0.014 µM⁻¹ s⁻¹ | 0.085 min⁻¹ | C=CC(=O)Nc1ccc(C(=O)NC2CCN(Cc3ccc(-c4nc5cc[nH]c(=O)c5cc4-c4ccccc4)cc3)CC2)c(F)c1 |  | 
0.038 µM⁻¹ s⁻¹ | 0.088 min⁻¹ | C=CC(=O)Nc1ccc(C(=O)NC2CCN(Cc3ccc(-c4nc5cc[nH]c(=O)c5cc4-c4ccccc4)cc3)CC2)s1 |  | 
0.004 µM⁻¹ s⁻¹ | 0.071 min⁻¹ | C=CC(=O)Nc1cccc(CNC2CCN(Cc3ccc(-c4nc5cc[nH]c(=O)c5cc4-c4ccccc4)cc3)CC2)c1 |  | 
